In ChEMBL document CHEMBL1145442, “Multistructure 3D-QSAR studies on a series of conformationally constrained butyrophenones docked into a new homology model of the 5-HT2A receptor” (J Med Chem, 2007):

Biological target: 5-hydroxytryptamine receptor 2A (Rattus norvegicus, UniProt P14842)
Test: Binding affinity at rat 5HT2A receptor

5-hydroxytryptamine receptor 2A, sequence (P14842 whole entry): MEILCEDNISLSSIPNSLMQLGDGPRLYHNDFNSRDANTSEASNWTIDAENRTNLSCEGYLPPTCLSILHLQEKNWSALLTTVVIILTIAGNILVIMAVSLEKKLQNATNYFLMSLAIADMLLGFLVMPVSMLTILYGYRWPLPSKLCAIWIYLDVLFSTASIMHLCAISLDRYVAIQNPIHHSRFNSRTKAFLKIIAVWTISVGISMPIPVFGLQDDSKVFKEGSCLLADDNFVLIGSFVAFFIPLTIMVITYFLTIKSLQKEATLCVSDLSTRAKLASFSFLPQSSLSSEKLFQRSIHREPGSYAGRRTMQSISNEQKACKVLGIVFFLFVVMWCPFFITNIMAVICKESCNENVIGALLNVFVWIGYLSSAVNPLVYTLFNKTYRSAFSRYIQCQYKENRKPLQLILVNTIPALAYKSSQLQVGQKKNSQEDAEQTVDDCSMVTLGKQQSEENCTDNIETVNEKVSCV

Ki | Structure (SMILES)
2000 nM | O=C1c2ccoc2CCC1CCN1CCN(C(=O)c2ccc(F)cc2)CC1 (stereo unspecified)
57.5 nM | O=C1CC(CN2CCC(c3noc4cc(F)ccc34)CC2)C(c2ccccc2)=NN1 (stereo unspecified)
275 nM | O=C1CC(CN2CCN(CCCC(=O)c3ccc(F)cc3)CC2)C(c2ccccc2)=NN1 (stereo unspecified)
1000 nM | O=C1CC(CN2CCN(CCCCC(=O)c3ccc(F)cc3)CC2)C(c2ccccc2)=NN1 (stereo unspecified)

Structure (SMILES) | Ki
COc1cc2c(cc1OC)C(=O)CC(CN1CCC3(CC1)NC(=O)NC3=O)C2 (stereo unspecified) | > 10000 nM
O=C1CC(CN2CCC3(CC2)NCNC3=O)Cc2ccccc21 (stereo unspecified) | > 10000 nM
